EC50, MCC and CC50 data for seven compounds are collected here from ChEMBL document CHEMBL1136504, “Novel bicyclic furanopyrimidines with dual anti-VZV and -HCMV activity” (Bioorg Med Chem Lett, 2003).

In experiment [1] the test system is Human alphaherpesvirus 3. Briefly: Antiviral activity evaluated against Varicella Zoster virus (YS). It is filed as functional, organism-based.
For experiment [2], the system named is Human betaherpesvirus 5. The experiment in a line: Antiviral activity evaluated against human cytomegalovirus (HCMV) AD169. It is filed as functional, organism-based.
The test system of experiment [3] is Human alphaherpesvirus 3. The experiment in a line: Concentration required to give 50% inhibition of replication of VZV OKA in tissue culture. Format: functional, organism-based.
Experiment [4] has as its system Human alphaherpesvirus 3. Briefly: Antiviral activity evaluated against thymidine kinase deficient(TK-) Varicella Zoster virus (YS). It is filed as functional, organism-based.
In experiment [5] the test system is HEL. The experiment in a line: Minimal cytotoxic concentration required to cause a morphological alteration of human embryonic lung fibroblast(HEL) cell cultures. It is filed as functional.
For experiment [6], the system named is Human betaherpesvirus 5. Briefly: Antiviral activity evaluated against human cytomegalovirus (HCMV) Davis. It is filed as functional, organism-based.
For experiment [7], the system named is Human alphaherpesvirus 3. The experiment in a line: Antiviral activity evaluated against thymidine kinase competent(TK+) Varicella Zoster virus (07). It is filed as functional, organism-based.
The test system of experiment [8] is HEL. Briefly: Concentration required against HEL cell proliferation. Format: functional. As to conditions: Homo sapiens.

`CC(C)CCOCCCCCCCCCc1cc2cn([C@H]3C[C@H](O)[C@@H](CO)O3)c(=O)nc2o1`: the EC50 is 0.06 µM in the experiment on Human alphaherpesvirus 3 [1]; greater than 5 µM in the experiment on Human betaherpesvirus 5 [2]; 0.05 µM in the experiment with Human alphaherpesvirus 3 [3]; greater than 5 µM in the experiment with Human alphaherpesvirus 3 [4]; 5 µM in the experiment with Human betaherpesvirus 5 [6]; greater than 5 µM with Human alphaherpesvirus 3 [7]. Besides, in the experiment with HEL [5], the MCC is 10 µM. Moreover, in the experiment with HEL [8], the CC50 is greater than 200 µM.

Consider `CCCCOCCCCCCCCCc1cc2cn([C@H]3C[C@H](O)[C@@H](CO)O3)c(=O)nc2o1`, for which the EC50 in the experiment on Human alphaherpesvirus 3 [1] is 0.03 µM; in the experiment on Human betaherpesvirus 5 [2], greater than 5 µM; with Human alphaherpesvirus 3 [3] it was 0.02 µM; in the experiment with Human alphaherpesvirus 3 [4], greater than 5 µM; with Human betaherpesvirus 5 [6] it was greater than 5 µM; in the experiment on Human alphaherpesvirus 3 [7] it was greater than 5 µM. The compound further had an MCC with HEL [5] of 20 µM. For the same compound, in the experiment on HEL [8], the cytotoxic concentration (CC50) is greater than 200 µM.

With `O=c1nc2oc(CCCCCCCCCOCCCCCl)cc2cn1[C@H]1C[C@H](O)[C@@H](CO)O1`, the EC50 with Human alphaherpesvirus 3 [1] is 0.03 µM; in the experiment with Human betaherpesvirus 5 [2] it was 9.7 µM; in the experiment with Human alphaherpesvirus 3 [3], 0.05 µM; with Human alphaherpesvirus 3 [4], no less than 50 µM; with Human betaherpesvirus 5 [6], 30 µM; with Human alphaherpesvirus 3 [7], no less than 200 µM. The MCC with HEL [5] is no less than 200 µM. Moreover, the CC50 with HEL [8] is greater than 200 µM.

As to `Nc1nc2c(ncn2COC(CO)CO)c(=O)[nH]1` [GANCICLOVIR], the results for the concentration giving a half-maximal response (EC50) in the experiment on Human betaherpesvirus 5 [2] and in the experiment with Human betaherpesvirus 5 [6] were 4 µM and 5.7 µM, respectively. Further, the MCC in the experiment on HEL [5] is greater than 150 µM. In the experiment with HEL [8], this compound came in with a CC50 greater than 150 µM.

As for `O=c1nc2oc(CCCCCCCCCOCC3CCCC3)cc2cn1[C@H]1C[C@H](O)[C@@H](CO)O1`, the EC50 in the experiment on Human alphaherpesvirus 3 [1] is 0.1 µM; in the experiment on Human betaherpesvirus 5 [2], greater than 5 µM; with Human alphaherpesvirus 3 [3], 0.09 µM; in the experiment on Human alphaherpesvirus 3 [4] it was greater than 5 µM; in the experiment with Human betaherpesvirus 5 [6], 5 µM; in the experiment on Human alphaherpesvirus 3 [7], greater than 5 µM. For the same compound, the MCC with HEL [5] was no less than 5 µM. Moreover, in the experiment with HEL [8], the 50% cytotoxic concentration (CC50) was greater than 200 µM.

Consider `CCCCCOCCCCCCCCCc1cc2cn([C@H]3C[C@H](O)[C@@H](CO)O3)c(=O)nc2o1`, for which the EC50 in the experiment with Human alphaherpesvirus 3 [1] is 0.02 µM; with Human betaherpesvirus 5 [2], greater than 5 µM; with Human alphaherpesvirus 3 [3], 0.01 µM; with Human alphaherpesvirus 3 [4] it was greater than 5 µM; in the experiment with Human betaherpesvirus 5 [6], greater than 5 µM; in the experiment on Human alphaherpesvirus 3 [7] it was greater than 5 µM. This compound yielded an MCC with HEL [5] of 10 µM. In the experiment on HEL [8], this compound returned a CC50 greater than 200 µM.

In turn, `CCCCCCCOCCc1cc2cn([C@H]3C[C@H](O)[C@@H](CO)O3)c(=O)nc2o1` showed a half-maximal effective concentration (EC50) in the experiment with Human alphaherpesvirus 3 [3] of 6 µM. This counts as single-digit micromolar.
